Literature values, collected in PubChem BioAssay AID1259409 (Chemical Carcinogenesis Research Information System (CCRIS), 2018).

Test system: rodent chemically induced tumor inhibition, incidence and multiplicity
Test: CCRIS tumor inhibitor studies
Conditions: Promoter: NONE USED; for outcome: Dose [Inhibitor]: 3 MG/KG BW IN 0.1 ML CORN OIL 3/WK FOR DURATION OF EXPERIMENT BEGINNING 15 D POST CARCINOGEN DOSE, Target Tissue: Type of Lesion: MAMMARY GLAND: ADENOCARCINOMA, FIBROADENOMA, Dose [Carcinogen]: 5 OR 10 MG IN 0.5 ML CORN OIL ONCE

CC(C)C[C@H]1C(=O)N2CCC[C@H]2[C@]2(O)O[C@](NC(=O)[C@@H]3C=C4c5cccc6[nH]c(Br)c(c56)C[C@H]4N(C)C3)(C(C)C)C(=O)N12
tumour outcome (control, treated, inhibition, significance) (Carcinogen: DIMETHYLBENZ[A]ANTHRACENE, 57-97-6, Dose [Inhibitor]: 3 MG/KG BW (0.1 ML) IN CORN OIL 5/WK OR 6/WK FOR 2 WK (11 INJECTIONS) BEGINNING 15 D PRIOR TO CARCINOGEN DOSE AT 35 D OF, Route [Inhibitor]: SUBCUTANEOUS, Species: RAT, Strain/Sex: SPRAGUE-DAWLEY/FEMALE, Target Tissue: Type of Lesion: MAMMARY GLAND: TUMOR, Dose [Carcinogen]: 5 MG/RAT IN CORN OIL ONCE): 13/22 (59%), 11/24 (46%), 22%, not significant | outcome (Carcinogen: DIMETHYLBENZ[A]ANTHRACENE, 57-97-6, MAINTAINED ON 0.5% FA, Route [Inhibitor]: SUBCUTANEOUS, Species: RAT, Strain/Sex: SPRAGUE-DAWLEY/FEMALE): 34%, 0%, 100%, not calculated (low dose carcinogen); 38%, 18%, 53%, not calculat | outcome (Carcinogen: DIMETHYLBENZ[A]ANTHRACENE, 57-97-6, MAINTAINED ON 20% FAT, Route [Inhibitor]: SUBCUTANEOUS, Species: RAT, Strain/Sex: SPRAGUE-DAWLEY/FEMALE): 56%, 0%, 100%, not calculated (low dose carcinogen); 58%, 19%, 67%, not calculat | tumour outcome (control, treated, inhibition, significance) (Carcinogen: DIMETHYLBENZ[A]ANTHRACENE, 57-97-6, Dose [Inhibitor]: 400 UG/100 G BW TOGETHER WITH 25 UG TAMOXIFEN/100 G BW 1/D FOR 20 WK BEGINNING 3 D POST CARCINOGEN DOSE (STUDY DURATION:, Route [Inhibitor]: SUBCUTANEOUS, Species: RAT, Strain/Sex: SPRAGUE-DAWLEY/FEMALE, Target Tissue: Type of Lesion: MAMMARY GLAND: CARCINOMA, Dose [Carcinogen]: 5 MG ONCE AT 53 D OF AGE): 85%, 21%, 75%, p<0.001 at 20 wk | tumour outcome (control, treated, inhibition, significance) (Carcinogen: DIMETHYLBENZ[A]ANTHRACENE, 57-97-6, Dose [Inhibitor]: 400 UG/100 G BW TOGETHER WITH 25 UG TAMOXIFEN/100 G BW 1/D FOR 20 WK BEGINNING 3 D POST CARCINOGEN DOSE (STUDY DURATION:, Route [Inhibitor]: SUBCUTANEOUS, Species: RAT, Strain/Sex: SPRAGUE-DAWLEY/FEMALE, Target Tissue: Type of Lesion: MAMMARY GLAND: CARCINOMA, Dose [Carcinogen]: 10 MG ONCE AT 53 D OF AGE): 90%, 10%, 89%, p<0.001 at 12 wks | tumour outcome (control, treated, inhibition, significance) (Carcinogen: DIMETHYLBENZ[A]ANTHRACENE, 57-97-6, Dose [Inhibitor]: 400 UG/100 G BW TOGETHER WITH 25 UG TAMOXIFEN/100 G BW 1/D FOR 26 WK BEGINNING 3 D POST CARCINOGEN DOSE (STUDY DURATION:, Route [Inhibitor]: SUBCUTANEOUS, Species: RAT, Strain/Sex: SPRAGUE-DAWLEY/FEMALE, Target Tissue: Type of Lesion: MAMMARY GLAND: CARCINOMA, Dose [Carcinogen]: 20 MG ONCE AT 53 D OF AGE): 100%, 12%, 88%, p<0.001 at 11 wks | tumour outcome (control, treated, inhibition, significance) (Carcinogen: DIMETHYLBENZ[A]ANTHRACENE, 57-97-6, Dose [Inhibitor]: 400 UG/100 G BW TOGETHER WITH 25 UG TAMOXIFEN/100 G BW 1/D PLUS 68 MG RETINYL ACETATE/KG OF DIET, BEGINNING 3 D POST CAR, Route [Inhibitor]: SUBCUTANEOUS, Species: RAT, Strain/Sex: SPRAGUE-DAWLEY/FEMALE, Target Tissue: Type of Lesion: MAMMARY GLAND: CARCINOMA, Dose [Carcinogen]: 20 MG ONCE AT 53 D OF AGE): 100%, 3%, 97%, p<0.001 at 11 wk | tumour outcome (control, treated, inhibition, significance) (Carcinogen: DIMETHYLBENZ[A]ANTHRACENE, 57-97-6, Dose [Inhibitor]: 400 UG/100 G BW TOGETHER WITH 25 UG TAMOXIFEN/100 G BW 1/D PLUS 204 MG RETINYL ACETATE/KG OF DIET, BEGINNING 3 D POST CA, Route [Inhibitor]: SUBCUTANEOUS, Species: RAT, Strain/Sex: SPRAGUE-DAWLEY/FEMALE, Target Tissue: Type of Lesion: MAMMARY GLAND: CARCINOMA, Dose [Carcinogen]: 10 MG ONCE AT 53 D OF AGE): 90%, 5%, 94%, p<0.001 at 12 wk | tumour outcome (control, treated, inhibition, significance) (Carcinogen: DIMETHYLBENZ[A]ANTHRACENE, 57-97-6, Dose [Inhibitor]: 400 UG/100 G BW TOGETHER WITH 25 UG TAMOXIFEN/100 G BW 1/D PLUS 328 MG RETINYL ACETATE/KG DIET BEGINNING 3 D POST CARCIN, Route [Inhibitor]: SUBCUTANEOUS, Species: RAT, Strain/Sex: SPRAGUE-DAWLEY/FEMALE, Target Tissue: Type of Lesion: MAMMARY GLAND: CARCINOMA, Dose [Carcinogen]: 5 MG ONCE AT 53 D OF AGE): 85%, 5%, 94%, p<0.001 at 20 wk | tumour outcome (control, treated, inhibition, significance) (Carcinogen: ENOVID (NORETHYNODREL WITH MESTRANOL), 8015-30-3, Dose [Inhibitor]: 0.1 MG 1/D FOR 21 MO BEGINNING CONCURRENTLY WITH CARCINOGEN DOSE (STUDY DURATION: 21 MO), Route [Inhibitor]: SUBCUTANEOUS, Species: MOUSE, Strain/Sex: C3H/FEMALE, Target Tissue: Type of Lesion: MAMMARY GLAND: CARCINOMA, Dose [Carcinogen]: 0.1 MG 2/WK FOR 21 MO): 30/100 (30%), 10/100 (10%), 67%, p<0.001 | tumour outcome (control, treated, inhibition, significance) (Carcinogen: ESTRONE, 53-16-7, PROGESTERONE, 57-83-0, Carcinogen: ESTRONE, 53-16-7, PROGESTERONE, 57-83-0, Dose [Inhibitor]: 100 UG 1/D FOR 13 WK BEGINNING CONCURRENTLY WITH CARCINOGEN DOSE (STUDY DURATION: NOT STATED, DATA INDICATES 13 WK), Route [Inhibitor]: SUBCUTANEOUS, Species: MOUSE, Strain/Sex: STRAIN-GR/FEMALE, Target Tissue: Type of Lesion: MAMMARY GLAND: PAPILLARY CARCINOMA, Dose [Carcinogen]: 0.5 MG/L FOR 13 WK IN DRINKING WATER BEGINNING AT 15 WK OF AGE, THEN 30 MG PELLET IMPLANT 1/MO BEGINNING AT 15 WK OF AGE): 58/119 (49%), 34/119 (29%), 41%, p<0.005 | tumour outcome (control, treated, inhibition, significance) (Carcinogen: ISONIAZID, 54-85-3, Dose [Inhibitor]: 5000 PPM IN DIET STARTING 1 WK PRIOR TO ADMINISTRATION OF CARCINOGEN UNTIL END OF EXPERIMENT (STUDY DURATION: APPROXIMAT, Route [Inhibitor]: ORAL, Species: MOUSE, Strain/Sex: SWISS/MALE, FEMALE, Target Tissue: Type of Lesion: LIVER AND LUNG: COMBINED TUMORS, Dose [Carcinogen]: 1.1 MG/D 5 D/WK UNTIL 25 MO OF AGE): 16/29 (55%), 4/20 (20%), 64%, p<o.o5 | tumour outcome (control, treated, inhibition, significance) (Carcinogen: N-METHYL-N'-NITRO-N-NITROSOGUANIDINE, 70-25-7, Dose [Inhibitor]: 0, 0.25 MG/KG AS A SUSPENSION IN OLIVE OIL 1/2 D BEGINNING POST CARCINOGEN DOSE AND CONTINUING FOR DURATION OF STUDY (ST, Route [Inhibitor]: SUBCUTANEOUS, Species: RAT, Strain/Sex: WISTAR/MALE, Target Tissue: Type of Lesion: STOMACH: ADENOCARCINOMA, Dose [Carcinogen]: 50 UG/ML IN DRINKING WATER FOR 25 WK): 12/19 (63%), 12/20 (60%), 5%, not calculated | tumour outcome (control, treated, inhibition, significance) (Carcinogen: N-METHYL-N'-NITRO-N-NITROSOGUANIDINE, 70-25-7, Dose [Inhibitor]: 0, 0.5 MG/KG AS A SUSPENSION IN OLIVE OIL 1/2 D BEGINNING POST CARCINOGEN DOSE AND CONTINUING FOR DURATION OF STUDY (STU, Route [Inhibitor]: SUBCUTANEOUS, Species: RAT, Strain/Sex: WISTAR/MALE, Target Tissue: Type of Lesion: STOMACH: ADENOCARCINOMA, Dose [Carcinogen]: 50 UG/ML IN DRINKING WATER FOR 25 WK): 12/19 (63%), 10/20 (50%), 21%, not calculated
